#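 48-hour exposure; five concentrations; linearly interpolated endpoints. TGI denotes the concentration required for complete inhibition of growth.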
# Assays:
# Assay in all cases: NCI tumour cell line growth inhibition, 48 h
# LOX IMVI melanoma = test system: LOX IMVI melanoma
# MDA-MB-231 breast = test system: MDA-MB-231 breast
# NCI/ADR-RES ovarian = test system: NCI/ADR-RES ovarian
# SNB-19 CNS = test system: SNB-19 CNS
# SF-268 CNS = test system: SF-268 CNS
# DU-145 prostate = test system: DU-145 prostate
# A498 renal = test system: A498 renal
# NCI-H522 lung = test system: NCI-H522 lung
# MCF7 breast = test system: MCF7 breast
# IGROV1 ovarian = test system: IGROV1 ovarian
# RPMI-8226 leukemia = test system: RPMI-8226 leukemia
# SF-539 CNS = test system: SF-539 CNS
# COLO 205 colon = test system: COLO 205 colon
# SK-MEL-5 melanoma = test system: SK-MEL-5 melanoma
SMILES,TGI (LOX IMVI melanoma) [µM],TGI (MDA-MB-231 breast) [µM],TGI (NCI/ADR-RES ovarian) [µM],TGI (SNB-19 CNS) [µM],TGI (SF-268 CNS) [µM],TGI (DU-145 prostate) [µM],TGI (A498 renal) [µM],TGI (NCI-H522 lung) [µM],TGI (MCF7 breast) [µM],TGI (IGROV1 ovarian) [µM],TGI (RPMI-8226 leukemia) [µM],TGI (SF-539 CNS) [µM],TGI (COLO 205 colon) [µM],TGI (SK-MEL-5 melanoma) [µM]
CC12OC3(C(O)C1O)C(C(=O)O[C@H]3CO[Si](C)(C)C(C)(C)C)C2S(=O)(=O)c1ccccc1 (some centres not stated),46.8,> 100,30.4,> 100,> 100,> 100,> 100,47.2,> 100,97.4,70.8,> 100,–,–
O=[N+]([O-])c1ccc(OP(=O)(O)OCC2OC(CP(=O)(O)O)C(O)C2O)cc1 (configuration not stated),> 100,> 100,> 100,> 100,> 100,> 100,> 100,> 100,> 100,> 100,–,> 100,> 100,> 100
CCOC(=O)C1=COC(C)(C)CC1=O,–,> 100,> 100,> 100,> 100,> 100,> 100,> 100,> 100,–,> 100,> 100,> 100,> 100
CSC1=N/C(=C\c2ccccc2)C(=O)N1CN1CCOCC1,> 100,> 100,> 100,> 100,> 100,> 100,> 100,> 100,> 100,> 100,> 100,–,> 100,> 100
Nc1nc(Cl)cc(NCC2(CO)CC(c3ccccc3)C2)n1 (configuration not stated),> 100,> 100,92.2,> 100,> 100,> 100,> 100,> 100,> 100,> 100,> 100,> 100,> 100,29.4
O=C(Nc1sccc1S(=O)(=O)c1ccc(Cl)cc1)c1ccc(Cl)cc1Cl,> 100,> 100,> 100,> 100,> 100,> 100,> 100,> 100,> 100,> 100,> 100,> 100,> 100,> 100
C=CCC1(O)C(=O)OC2C(O)COC21O (configuration not stated),> 100,> 100,> 100,> 100,> 100,> 100,> 100,> 100,> 100,> 100,–,> 100,> 100,> 100
N=c1oc2ccc([N+](=O)[O-])cc2cc1C(=O)Nc1ccccn1,> 100,59.9,> 100,> 100,> 100,> 100,> 100,86.2,> 100,> 100,> 100,> 100,> 100,> 100
COC(=N)c1ncn(Cc2ccccc2)c1N,> 100,> 100,> 100,> 100,> 100,> 100,> 100,> 100,> 100,> 100,> 100,> 100,> 100,> 100
CC(C)(C)OC(=O)N(CCCCNC(=O)c1ccccc1)CCCNC(=O)c1ccccc1,–,> 100,> 100,> 100,> 100,> 100,> 100,> 100,> 100,> 100,> 100,> 100,> 100,> 100
COC(=O)CCN1CCN(CCO)CC1C (configuration not stated),> 10,> 10,> 10,> 10,> 10,> 10,> 10,> 10,> 10,> 10,> 10,> 10,> 10,> 10
CCn1c(SCC(=O)NNC(=S)Nc2ccc(Cl)cc2)nc2ccccc2c1=O,> 100,> 100,> 100,> 100,> 100,> 100,98.3,> 100,> 100,> 100,94.8,> 100,> 100,> 100
c1csc(-c2cscc2-c2cccs2)c1,> 100,> 100,> 100,> 100,> 100,8.22,> 100,–,49.5,> 100,> 100,51.4,> 100,> 100
Cc1ccccc1C(=O)NC(O)(C(F)(F)F)C(F)(F)F,> 100,> 100,> 100,> 100,> 100,> 100,> 100,> 100,> 100,> 100,> 100,> 100,> 100,> 100
O=C1NC(=O)/C(=C/c2ccc(S(=O)(=O)N/N=C/c3ccccc3)cc2)N1,> 100,> 100,> 100,> 100,> 100,> 100,> 100,–,> 100,> 100,> 100,–,> 100,> 100
O=C(Nc1ccc(Cl)cc1Cl)c1cc2nc3ccccc3c(=O)n2c2ccccc12,> 10,> 10,> 10,> 10,> 10,> 10,> 10,> 10,> 10,> 10,–,> 10,–,> 10
Cc1cc(O)c2c(c1)C(=O)C=C(Br)C2=O,25.4,33.8,43.1,> 100,98.9,17,38.2,7.34,23.4,> 60.2,23,29.8,19.2,27.4

SMILES,TGI (LOX IMVI melanoma) [µM],TGI (MDA-MB-231 breast) [µM],TGI (NCI/ADR-RES ovarian) [µM],TGI (SNB-19 CNS) [µM],TGI (SF-268 CNS) [µM],TGI (DU-145 prostate) [µM],TGI (A498 renal) [µM],TGI (NCI-H522 lung) [µM],TGI (MCF7 breast) [µM],TGI (IGROV1 ovarian) [µM],TGI (RPMI-8226 leukemia) [µM],TGI (SF-539 CNS) [µM],TGI (COLO 205 colon) [µM],TGI (SK-MEL-5 melanoma) [µM]
Clc1ccc(/C=C/c2nc(-c3ccc(Cl)cc3)cn3c2nc2ccccc23)cc1,> 100,> 100,> 100,> 100,> 100,> 100,> 100,–,> 100,> 100,> 100,> 100,> 100,> 100
Cc1cc(CN(Cc2ccccc2)Cc2nc3ccccc3[nH]2)c(O)c(CN(Cc2nc3ccccc3[nH]2)Cc2nc3ccccc3[nH]2)c1,13.3,> 71.4,35.9,> 25.1,> 100,> 100,> 48.6,> 69.5,8.87,> 93.2,38.4,22.4,> 55.1,19.5
COC(=O)c1ccc(-n2c(C)nc(=O)c(-c3ccccc3)c2C)cc1,> 100,> 100,> 100,> 100,> 100,> 100,> 100,> 100,> 100,> 100,> 100,> 100,> 100,> 100
c1ccc2c(c1)ncn2CCn1ccnc1,> 100,> 100,> 100,> 100,> 100,> 100,> 100,> 100,> 100,> 100,> 100,> 100,> 100,> 100
CC(=O)O[C@@H]1[C@@H](C)[C@]2(CC(c3ccoc3)OC2O)C2CCC3O[C@]3(C)[C@]2(C)[C@@H]1OC(C)=O (some centres not stated),44.1,> 100,> 100,> 100,> 100,> 100,> 100,69.7,> 100,> 100,60.7,65.3,40,64.3
COc1ccc(/C=N/NS(=O)(=O)c2ccc(/C=C3\NC(=O)N(C)C3=O)cc2)cc1,> 100,> 100,> 100,> 100,> 100,> 100,> 100,–,> 100,> 100,> 100,–,> 100,> 100
Nc1ncnc2c1ccn2CC=C(CO)CO,> 100,> 100,> 100,> 100,> 100,> 100,> 100,> 100,> 100,> 100,> 100,> 100,–,> 100
O=S(=O)(c1ccccc1)[C@@H]1[C@H]2C=C[C@](CS)(O2)[C@H]1S(=O)(=O)c1ccccc1,> 100,> 100,> 100,> 100,> 100,> 100,> 100,31.7,> 100,> 100,–,–,> 100,> 100
CCOC(=O)C(Cc1ccc2c(c1)CCC2)Cc1ccc2c(c1)CCC2,47.8,> 100,> 100,> 100,> 100,> 100,> 100,> 100,> 100,> 100,> 100,> 100,–,40.3
COC(=O)C(=O)c1cc2ccccc2n1S(=O)(=O)c1ccccc1,> 100,> 100,> 100,> 100,> 100,> 100,> 100,> 100,> 100,> 100,–,> 100,> 100,> 100
S=C1NCCN1C(=S)NC1CCCCC1,> 100,> 100,> 100,–,> 100,> 100,38.7,69,> 100,> 100,> 100,70.7,59.2,50.7
CSc1ncc2c(C#N)c3ccccn3c(=O)c2n1,> 100,> 100,> 100,> 100,> 100,> 100,> 100,–,> 100,> 100,> 100,> 100,> 100,> 100
Cn1c2c(c3ccccc31)CC(=O)N1CCCC(C1)CC21OCCO1 (configuration not stated),> 100,> 100,> 100,> 100,> 100,> 100,> 100,–,> 100,> 100,> 100,–,> 100,> 100
CCNC(=S)Nc1c(C#N)c2n(c1C(=O)OCC)CCCCC2,> 100,> 100,> 100,> 100,> 100,> 100,> 100,–,> 100,> 100,> 100,> 100,> 100,> 100
O=CN1CCN(C(=O)c2ccc(Cl)cc2)C1=S,24.5,34.5,> 100,29.5,35.9,29.1,29.3,31.2,11,28.5,17.1,61.7,41.9,–
CC1=C(S(=O)c2ccc(C)cc2)CCC2(CCCCO2)O1 (configuration not stated),> 100,> 100,> 100,> 100,> 100,> 100,> 100,> 100,> 100,> 100,> 100,–,> 100,> 100
O=C(Nc1ccccc1)c1cc2c(cc1Cl)SC(NNCCO)=NS2(=O)=O,> 100,> 100,> 100,> 100,> 100,> 100,> 100,–,> 100,> 100,> 100,> 100,> 100,> 100
